Test results published in US8685928B2, “Antagonists of MUC1” (Dana-Farber Cancer Institute, Inc., priority 2010, dated 2014).
Values after ≈ are worked out from the molar mass of the structure shown. “Also recorded” adds a separate entry of the source. Positions of bridges follow the written chain, without caps; N, C: chain ends. Non-standard residues stand in square brackets, D forms with d. Residues, ends and D or L forms follow the SMILES beside them.

Key:
[1] = test system: H1975 Lung cancer cells; assay: Inhibition of cell proliferation, trypan blue exclusion (Table 2); assay type: cell-based, human; conditions: 5 μM peptide every day, 6-day treatment
Description: Cells (ZR-75-1 breast carcinoma or H-1975 non-small cell lung carcinoma) were plated separately in 24-well plates for 24 hours prior to treatment with different peptides. The cells were then treated with 5 μM (final concentration) of different peptides every day for 4-6 days. On the day of termination, cells were washed two times with PBS and trypsinized with 0.3 ml of Trypsin/EDTA. Cell growth media was used to stop the trypsin reaction. Following washing, the cells were centrifuged and the cell pellets were re-suspended in PBS for counting in hemacytometer.
The trypan blue dye exclusion method was used to determine the number of viable cells present in a cell suspension. Cell suspension was mixed as 1:1 with the trypan blue dye and then visually examined in a hemacytometer. A viable cell will have a clear cytoplasm whereas a non-viable/dead cell will be stained with trypan blue dye. By doing this trypan blue exclusion method, viable cell numbers were counted and percent inhibition of proliferation was then calculated comparing with untreated controls.

[2] = test system: human carcinoma cell lines
Description: A series of in vitro and in vivo primary pharmacodynamic studies was conducted to assess efficacy and mechanism of action of GO-203-2c in human tumor cells.
GO-203-2 and GO-203-2c were evaluated for ability to inhibit proliferation of murine and human carcinoma cell lines in vitro. Test compound (5 μM final concentration) was added to tumor cell cultures daily for 5 to 6 days, and cell viability was determined by trypan blue dye exclusion.

[3] = test system: MiaPaCa pancreatic carcinoma xenograft; assay: MiaPaCa human pancreatic carcinoma xenograft model, GO-203-2c IV; assay type: in vivo, mouse
Description: Male BALB/c nu/nu mice (8 weeks old; Charles River Laboratories, Wilmington, Mass.) were injected with 2.5 million MiaPaCa cells in the right thigh. When tumors reached a predetermined size (approximately 100 mm^3; 34 days after tumor cell implantation), mice (8 per group) were administered normal saline (control) or GO-203-2c (10 mg/kg) IV daily for 21 consecutive days. At the end of the treatment period, and following a one week interim period, animals that received GO-203-2c initially were administered an additional series of GO-203-2c daily injections.

[4] = test system: PC3 prostate carcinoma xenograft; assay: PC3 human prostate carcinoma xenograft model; assay type: in vivo, mouse; conditions: 7.5 mg/kg
Description: Male BALB/c nu/nu mice (6-7 weeks old; Charles River Laboratories, Wilmington, Mass.) were injected with 5 million A549 or PC3 cells in the right thigh. When tumors reached a predetermined size (approximately 80-100 mm^3; 10-16 days after tumor cell implantation), treatment was initiated as follows: Group 1, saline control (daily×21 days); Group 2, GO-203-2c (7.5 mg/kg, 5 days on/2 days off×3 cycles); Group 3, GO-203-2c (7.5 mg/kg, daily×21 days). In the A549 study, Group 3 animals that still had palpable/measurable tumors at the end of the 21-day treatment period were administered an additional 9 days of GO-203-2c treatment (Group 3′), with a one week interim period between treatments.

[5] = test system: MUC1-CD; assay: MUC1-CD oligomerization in transfected HEK 293T cells, species comparison; assay type: cell-based; conditions: MUC1-CD from rat, dog and human compared
Description: Studies were also conducted to confirm pharmacological relevance of the rodent and nonrodent species chosen for toxicology studies, namely the rat and dog, respectively. MUC1-CD amino acid sequence was determined to be greater than 80% identical between rat, dog and human proteins, and similar expression of MUC1 was found in stomach, intestinal and lung epithelium from the different species using immunohistochemical staining. […] The results of these studies indicate that potential MUC1-CD targets in the rat, dog and human are similar with respect to sequence, tissue expression and responsiveness to inhibition of oligomerization by GO-203-2c, and confirm pharmacological relevance of the species chosen for nonclinical safety assessment of GO-203-2c.

[6] = Dog pivotal repeat-dose toxicity study; assay type: in vivo; conditions: for Safety margin: human starting dose lower than NOAEL: 3 mg/m^2 human starting dose
Description: The proposed clinical trial will be a multicenter, open-label, dose-escalation, safety, pharmacodynamic and pharmacokinetic study in patients with advanced solid tumors administered GO-203-2c IV over 60 min once per day for 21 consecutive days; this dosing regimen will be repeated every 28 days. Since the majority of the treatment-related findings in rats and dogs were localized at the infusion site or were secondary to the infusion site reactions, the no-observed-adverse-effect-level (NOAEL) for systemic toxicity in the pivotal repeat-dose rat toxicity study was determined to be 5 mg/kg/day. The highest non-severely toxic dose (HNSTD), which was also considered the NOAEL, was established as 1 mg/kg/day in the dog pivotal repeat-dose toxicity study. For vascular injury at the injection site, the NOAEL in rats is […]. This concentration rate is 25-fold greater than the estimated concentration rate for humans (0.83 μg/mL/min) at the recommended starting dose of 3 mg/m2/day (assumes a body mass of 1.65 m2).

[7] = Solubility; assay type: physicochemical; conditions: for solubility: as peptide
[8] = molecular target: adrenergic α1A receptor (Homo sapiens, UniProt P35348); assay: biochemical
[9] = molecular target: norepinephrine transporter (Homo sapiens, UniProt P23975); assay: biochemical
[10] = molecular target: muscarinic M2 receptor (Homo sapiens, UniProt P08172); assay: biochemical
[11] = molecular target: nicotinic acetylcholine α1 (bungarotoxin) receptor (Homo sapiens, UniProt P02708+P07510+Q07001); assay: biochemical
[12] = molecular target: dopamine D1 receptor (Homo sapiens, UniProt P21728); assay: biochemical
[13] = 10 mg/kg IV daily for 21 consecutive days

Chain of adrenergic α1A receptor (P35348 whole entry): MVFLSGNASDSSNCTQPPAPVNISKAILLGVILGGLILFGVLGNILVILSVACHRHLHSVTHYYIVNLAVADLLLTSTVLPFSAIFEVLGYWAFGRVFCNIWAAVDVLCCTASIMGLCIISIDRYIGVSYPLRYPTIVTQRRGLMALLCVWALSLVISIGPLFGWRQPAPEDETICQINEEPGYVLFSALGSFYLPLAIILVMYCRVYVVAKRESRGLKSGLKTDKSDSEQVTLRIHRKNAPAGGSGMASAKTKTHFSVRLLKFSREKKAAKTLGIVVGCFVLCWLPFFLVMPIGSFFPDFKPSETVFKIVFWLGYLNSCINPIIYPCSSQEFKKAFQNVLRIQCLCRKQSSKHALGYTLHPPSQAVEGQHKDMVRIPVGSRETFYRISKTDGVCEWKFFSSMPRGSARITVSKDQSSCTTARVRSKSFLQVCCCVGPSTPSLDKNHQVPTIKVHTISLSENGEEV
Chain of norepinephrine transporter (P23975 whole entry, species assumed): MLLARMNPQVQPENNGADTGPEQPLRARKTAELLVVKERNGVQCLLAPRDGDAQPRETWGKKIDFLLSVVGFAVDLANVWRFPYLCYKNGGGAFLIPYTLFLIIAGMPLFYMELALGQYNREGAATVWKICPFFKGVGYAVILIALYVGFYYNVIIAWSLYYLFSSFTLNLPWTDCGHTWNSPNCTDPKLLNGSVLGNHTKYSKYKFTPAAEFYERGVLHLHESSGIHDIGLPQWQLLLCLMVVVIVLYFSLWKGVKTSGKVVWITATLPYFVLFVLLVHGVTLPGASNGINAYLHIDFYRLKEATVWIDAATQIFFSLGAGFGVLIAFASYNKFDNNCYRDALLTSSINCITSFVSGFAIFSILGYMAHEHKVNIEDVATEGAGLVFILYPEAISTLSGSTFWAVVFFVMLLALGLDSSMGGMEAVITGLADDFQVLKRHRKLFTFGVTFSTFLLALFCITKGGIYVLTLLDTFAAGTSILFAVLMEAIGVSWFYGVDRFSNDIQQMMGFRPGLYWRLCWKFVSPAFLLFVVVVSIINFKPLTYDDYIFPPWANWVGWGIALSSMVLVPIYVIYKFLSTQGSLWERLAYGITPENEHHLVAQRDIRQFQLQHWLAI
Chain of nicotinic acetylcholine α1 (bungarotoxin) receptor (P07510 23-517): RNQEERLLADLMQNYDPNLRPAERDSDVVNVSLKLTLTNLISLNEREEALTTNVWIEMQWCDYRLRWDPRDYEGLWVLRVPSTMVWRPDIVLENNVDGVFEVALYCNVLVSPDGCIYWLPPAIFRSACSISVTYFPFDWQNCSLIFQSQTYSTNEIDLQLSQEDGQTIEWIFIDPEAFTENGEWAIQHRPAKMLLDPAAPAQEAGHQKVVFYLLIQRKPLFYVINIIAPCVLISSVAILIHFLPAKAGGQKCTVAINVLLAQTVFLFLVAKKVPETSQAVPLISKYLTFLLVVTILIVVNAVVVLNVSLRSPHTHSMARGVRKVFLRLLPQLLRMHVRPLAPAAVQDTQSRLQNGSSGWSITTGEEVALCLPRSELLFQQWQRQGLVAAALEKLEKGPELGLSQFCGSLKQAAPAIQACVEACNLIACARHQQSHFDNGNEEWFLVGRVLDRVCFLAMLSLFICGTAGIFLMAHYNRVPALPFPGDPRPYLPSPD
Chain of nicotinic acetylcholine α1 (bungarotoxin) receptor (P02708 21-457): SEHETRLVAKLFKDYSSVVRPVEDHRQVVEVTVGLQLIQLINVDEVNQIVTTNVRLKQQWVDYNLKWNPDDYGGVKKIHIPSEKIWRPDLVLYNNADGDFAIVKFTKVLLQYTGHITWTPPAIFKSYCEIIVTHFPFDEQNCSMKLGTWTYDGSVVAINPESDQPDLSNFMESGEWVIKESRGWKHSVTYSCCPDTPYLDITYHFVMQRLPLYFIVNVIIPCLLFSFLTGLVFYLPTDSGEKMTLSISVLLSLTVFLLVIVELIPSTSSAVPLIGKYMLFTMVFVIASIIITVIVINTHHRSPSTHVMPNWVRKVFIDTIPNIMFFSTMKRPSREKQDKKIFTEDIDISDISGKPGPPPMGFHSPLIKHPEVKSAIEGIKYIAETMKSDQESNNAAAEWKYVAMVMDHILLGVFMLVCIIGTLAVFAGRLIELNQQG
Chain of nicotinic acetylcholine α1 (bungarotoxin) receptor (Q07001 22-517): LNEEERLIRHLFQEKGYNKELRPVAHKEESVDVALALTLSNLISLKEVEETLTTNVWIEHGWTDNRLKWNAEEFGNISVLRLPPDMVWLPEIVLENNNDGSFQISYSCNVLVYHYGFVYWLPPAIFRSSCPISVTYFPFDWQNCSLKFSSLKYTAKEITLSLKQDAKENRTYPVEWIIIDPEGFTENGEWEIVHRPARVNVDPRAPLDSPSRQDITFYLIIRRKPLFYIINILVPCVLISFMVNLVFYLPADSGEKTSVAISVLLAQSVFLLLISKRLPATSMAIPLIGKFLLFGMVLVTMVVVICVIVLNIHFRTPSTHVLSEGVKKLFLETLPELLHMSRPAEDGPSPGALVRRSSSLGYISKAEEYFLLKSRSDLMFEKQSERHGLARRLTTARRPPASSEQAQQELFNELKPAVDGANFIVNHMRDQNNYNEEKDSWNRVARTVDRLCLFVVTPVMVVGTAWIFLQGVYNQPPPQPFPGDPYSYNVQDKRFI
Chain of nicotinic acetylcholine α1 (bungarotoxin) receptor (P11230 24-501, further chain): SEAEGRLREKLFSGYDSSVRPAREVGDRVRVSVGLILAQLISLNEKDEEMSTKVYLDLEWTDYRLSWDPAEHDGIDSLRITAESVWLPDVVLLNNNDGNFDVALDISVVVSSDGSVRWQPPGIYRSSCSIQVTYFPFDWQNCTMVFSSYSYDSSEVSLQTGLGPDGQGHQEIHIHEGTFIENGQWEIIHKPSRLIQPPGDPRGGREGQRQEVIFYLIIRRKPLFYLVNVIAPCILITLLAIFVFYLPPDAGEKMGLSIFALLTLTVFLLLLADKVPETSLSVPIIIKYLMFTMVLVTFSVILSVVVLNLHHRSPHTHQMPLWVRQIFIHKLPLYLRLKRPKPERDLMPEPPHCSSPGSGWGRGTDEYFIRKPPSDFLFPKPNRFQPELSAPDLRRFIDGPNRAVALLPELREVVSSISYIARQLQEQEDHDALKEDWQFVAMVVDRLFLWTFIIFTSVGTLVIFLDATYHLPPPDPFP
Chain of muscarinic M2 receptor (P08172 whole entry): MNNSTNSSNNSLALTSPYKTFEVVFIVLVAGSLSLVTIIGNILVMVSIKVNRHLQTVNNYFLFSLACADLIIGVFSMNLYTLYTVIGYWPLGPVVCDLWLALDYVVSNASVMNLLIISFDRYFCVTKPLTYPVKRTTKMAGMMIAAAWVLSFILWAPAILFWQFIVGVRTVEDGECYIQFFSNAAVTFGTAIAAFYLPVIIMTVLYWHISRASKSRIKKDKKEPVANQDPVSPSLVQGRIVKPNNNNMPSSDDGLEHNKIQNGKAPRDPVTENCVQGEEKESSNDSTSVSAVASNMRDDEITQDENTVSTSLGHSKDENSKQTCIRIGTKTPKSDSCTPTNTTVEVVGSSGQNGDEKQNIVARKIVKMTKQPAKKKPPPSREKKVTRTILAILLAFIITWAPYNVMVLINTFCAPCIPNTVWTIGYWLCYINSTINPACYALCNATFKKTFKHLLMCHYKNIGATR
Chain of dopamine D1 receptor (P21728 whole entry, species assumed): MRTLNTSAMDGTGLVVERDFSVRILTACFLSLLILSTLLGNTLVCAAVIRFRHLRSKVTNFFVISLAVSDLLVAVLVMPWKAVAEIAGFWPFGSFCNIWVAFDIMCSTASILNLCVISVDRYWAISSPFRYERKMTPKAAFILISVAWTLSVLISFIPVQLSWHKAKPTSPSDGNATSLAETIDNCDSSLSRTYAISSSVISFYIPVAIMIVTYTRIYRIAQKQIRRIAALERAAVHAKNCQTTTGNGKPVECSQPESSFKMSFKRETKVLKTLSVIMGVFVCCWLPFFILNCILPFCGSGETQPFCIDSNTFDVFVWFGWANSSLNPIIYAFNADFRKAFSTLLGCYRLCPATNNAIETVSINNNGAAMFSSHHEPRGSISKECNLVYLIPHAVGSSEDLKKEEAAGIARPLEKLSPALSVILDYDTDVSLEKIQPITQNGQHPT

With CC(=O)N[C@H](CCCNC(=N)N)C(=O)N[C@H](CCCNC(=N)N)C(=O)N[C@H](CCCNC(=N)N)C(=O)N[C@H](CCCNC(=N)N)C(=O)N[C@H](CCCNC(=N)N)C(=O)N[C@H](CCCNC(=N)N)C(=O)N[C@H](CCCNC(=N)N)C(=O)N[C@H](CCCNC(=N)N)C(=O)N[C@H](CCCNC(=N)N)C(=O)N[C@@H]1CSSC[C@H](C(=O)N[C@H](CCCNC(=N)N)C(=O)N[C@H](CCCNC(=N)N)C(=O)N[C@H](CCCCN)C(=O)N[C@H](CC(N)=O)C(N)=O)NC(=O)[C@@H](CCC(N)=O)NC1=O [GO-203-2c, Ac-(D)Arg-(D)Arg-(D)Arg-(D)Arg-(D)Arg-(D)Arg-(D)Arg-(D)Arg-(D)Arg-(D)Cys-(D)Gln-(D)Cys-(D)Arg-(D)Arg-(D)Lys-(D)Asn-NH2 disulfide] (Ac-[dR][dR][dR][dR][dR][dR][dR][dR][dR][dC][dQ][dC][dR][dR][dK][dN]-NH2; disulfide 10-12) the “Avg (viable cell number of Groups 1-3)” value [1] was 7.2, the “% inhibition” value ([1]; vs untreated control) was 60.7% and the “Group-1 (viable cell number, individual well)” value ([1]; well having 10,000 cells) was 8.47. For the same compound, the “Group-2 (viable cell number, individual well)” value ([1]; well having 10,000 cells) was 7.13, the “Group-3 (viable cell number, individual well)” value ([1]; well having 10,000 cells) was 6.02 and the “50% inhibition (IC50) of proliferation” value [2] was 5 to 11 µg/mL. The IC50 [2] was 2 to 5 µM, the Mice tumor-free [3, 13] was 2 of 8 and Two out of 8 and the Tumor response [3, 13] was “significant arrest of tumor growth; also recorded: tumor growth delay”. For the same compound, the “Tumor response after re-dosing” value ([3]; another cycle of daily IV 10 mg/kg from day 29) was “somewhat stabilized, with a very slow growth”, the “Average tumor size on day 29” value ([3]; six remaining mice after 7-day rest period, at start of re-dosing) was ~400 mm^3 and the Tumor response ([4]; 5 days on/2 days off x 3 cycles) was “complete growth arrest and regression; also recorded: tumor growth was immediately arrested and tumors regressed”. For the same compound, the Tumor response ([4]; daily x 21 days) was “complete growth arrest and regression; also recorded: tumor growth was immediately arrested and tumors regressed”, the “Inhibition of MUC1-CD oligomerization” value [5] was “in an equivalent manner” and the “HNSTD or NOAEL” value ([6]; body surface area basis) was 20 mg/m2/day. The NOAEL ([6]; in vivo, repeat-dose IV, read-out: Highest non-severely toxic dose (HNSTD), also considered the NOAEL) was 1 mg/kg/day, the “Safety margin: human starting dose lower than NOAEL” value ([6]; mg/kg basis) was 12 fold and the “Safety margin: human starting dose lower than NOAEL” value ([6]; mg/m^2 basis) was 6.7 fold. The solubility ([7]; 10 mM acetate pH 3.0-4.0, 0.9% NaCl) was > 50 mg/mL, the solubility ([7]; 10 mM acetate pH 4.0) was 7 to 37 mg/mL (≈ 2.98 to 15.7 mM) and the solubility ([7]; 1% (v/v) aqueous acetic acid) was > 110 mg/mL. For the same compound, the solubility ([7]; 10% (v/v) aqueous acetonitrile) was > 110 mg/mL, the “Time without gel formation” value ([7]; solutions in water, 1% aqueous acetic acid or 10% aqueous acetonitrile) was “at least 5 days” and the solubility ([7]; water) was > 240 mg/mL. The IC50 [8] was 3 to 8 µM, the IC50 [9] was 3 to 8 µM and the IC50 [10] was 3 to 8 µM. For the same compound, the IC50 [11] was 3 to 8 µM and the IC50 [12] was 10.5 µM.
